Here are results for eleven compounds from patent publication US20110015371A1 (Vertex Pharmaceuticals Incorporated, priority 1994, published 2011).

Structures are written as SMILES. pIC50: −log10 of the molar value. Structures can show the parent of a compound that is named as a salt. Non-standard residues stand in square brackets, D forms with d. Residues, ends and D or L forms follow the SMILES beside them. *: point of attachment. Hyp = O=C(O)[C@@H]1C[C@@H](O)CN1; Allyl = C=CC*

This assay concerns Human Peripheral Blood Mononuclear Cells (PBMC) or Enriched Adherent Mononuclear Cells. In words: Cell assay: IL-1β assay with human PBMC or enriched adherent mononuclear cells. The format is cell-based. The conditions noted are these: LPS-stimulated cells, mature IL-1β in supernatant by ELISA. The source says:
IL-1β Assay with a Mixed Population of Human Peripheral Blood Mononuclear Cells (PBMC) or Enriched Adherent Mononuclear Cells
Processing of pre-IL-1S by ICE can be measured in cell culture using a variety of cell sources. Human PBMC obtained from healthy donors provides a mixed population of lymphocyte subtypes and mononuclear cells that produce a spectrum of interleukins and cytokines in response to many classes of physiological stimulators. Adherent mononuclear cells from PBMC provides an enriched source of normal monocytes for selective studies of cytokine production by activated cells.
An initial dilution series of test compound in DMSO or ethanol is prepared, with a subsequent dilution into RPMI-10% FBS media (containing 2 mM L-glutamine, 10 mM HEPES, 50 U and 50 ug/ml pen/strep) respectively to yield drugs at 4× the final test concentration containing 0.4% DMSO or 0.4% ethanol. The final concentration of DMSO is 0.1% for all drug dilutions. A concentration titration which brackets the apparent Ki for a test compound determined in an ICE inhibition assay is generally used for the primary compound screen.
We generally test 5-6 compound dilutions and have performed the cellular component of the assay in duplicate, with duplicate ELISA determinations on each cell culture supernatant.
Buffy coat cells isolated from one pint human blood (yielding 40-45 ml final volume plasma plus cells) are diluted with media to 80 ml and LeukoPREP separation tubes (Becton Dickinson) are each overlaid with 10 ml of cell suspension. After 15 min centrifugation at 1500-1800×g, the plasma/media layer is aspirated and then the mononuclear cell layer is collected with a Pasteur pipette and transferred to a 15 ml conical centrifuge tube (Corning). Media is added to bring the volume to 15 ml, gently mix the cells by inversion and centrifuge at 300×g for 15 min. Resuspend the PBMC pellet in a small volume of media, count cells and adjust to 6×10^6 cells/ml.
For the cellular assay, add 1.0 ml of the cell suspension to each well of a 24-well flat bottom tissue culture plate (Corning), 0.5 ml test compound dilution and 0.5 ml LPS solution (Sigma #L-3012; 20 ng/ml solution prepared in complete RPMI media; final LPS concentration 5 ng/ml). The 0.5 ml additions of test compound and LPS are usually sufficient to mix the contents of the wells. Three control mixtures are run per experiment, with either LPS alone, solvent vehicle control, and/or additional media to adjust the final culture volume to 2.0 ml. The cell cultures are incubated for 16-18 hr at 37° C. in the presence of 5% CO2.
At the end of the incubation period, cells are harvested and transferred to 15 ml conical centrifuge tubes. After centrifugation for 10 min at 200×g, supernatants are harvested and transferred to 1.5 ml Eppendorf tubes. It may be noted that the cell pellet may be utilized for a biochemical evaluation of pre-IL-1S and/or mature IL-1β content in cytosol extracts by western blotting or ELISA with pre-IL-1β specific antisera.
PBMC are isolated and prepared as described above. Media (1.0 ml) is first added to wells followed by 0.5 ml of the PBMC suspension. After a one hour incubation, plates are gently shaken and nonadherent cells aspirated from each well. Wells are then gently washed three times with 1.0 ml of media and final resuspended in 1.0 ml media. The enrichment for adherent cells generally yields 2.5−3.0×10^5 cells per well. The addition of test compounds, LPS, cell incubation conditions and processing of supernatants proceeds as described above.
We have used Quantikine kits (R&D Systems) for measurement of mature IL-1β. Assays are performed according to the manufacturer's directions. Mature IL-1β levels of about 1-3 ng/ml in both PBMC and adherent mononuclear cell positive controls are observed. ELISA assays are performed on 1:5, 1:10 and 1:20 dilutions of supernatants from LPS-positive controls to select the optimal dilution for supernatants in the test panel.
A general note: An ELISA detects its analyte on a solid surface through an enzyme-linked reagent.

[1] abbreviates: Homo sapiens, PBMC, Example 4 table.
Where [2] appears, read: Homo sapiens, PBMC, Example 6 table.
The mark [3] stands for this setting: Homo sapiens, PBMC, Example 2 table.

As a reminder, the pIC50 is −log10 of the IC50, conventionally taken in molar units. Low values mean a large IC50, high ones a small IC50. Regarding `CC(C)[C@H](NC(=O)OCc1ccccc1)C(=O)N[C@@H](C)C(=O)N[C@H](CC(=O)O)C(=O)COCc1c(Cl)cccc1Cl` (mixture of isomers) [Compound 84a, (R,S)N-[N-(Phenylmethyloxy)carbonyl-valinyl-alaninyl]-3-amino-5-(2,6-dichlorophenylmethyloxy)-4-oxo-pentanoic acid], the pIC50 under setting [1] was 5.48.

Take `CC(C(=O)N[C@H](C=O)CC(=O)O)N1CCN(Cc2ccccc2)C[C@H](NC(=O)OCc2ccccc2)C1=O` (mixture of isomers) [Compound 114a, 3(S)-{2(R,S)-[4-Benzyl-7-oxo-6(S)-(N-benzyloxycarbonylamino)-[1,4]diazepan-1-yl]-propionylamino}-4-oxo-butyric acid trifluoroacetic acid salt]: the negative-log IC50 (pIC50) under setting [2] was 5.42.

`CC(C(=O)N[C@H](C=O)CC(=O)O)N1CCN(C(=O)CCc2ccccc2)C[C@H](NC(=O)CCc2ccccc2)C1=O` (mixture of isomers) [Compound 115, 4-Oxo-3(S)-{2(R,S)-[7-oxo-4-(3-phenyl-propionyl)-6(S)-(3-phenyl-propionylamino)-[1,4]diazepan-1-yl]-propionylamino}-butyric acid]: the negative logarithm of the IC50 (pIC50) under setting [2] was 5.22.

Under setting [1], `C[C@H](NC(=O)c1nc(CCCc2ccccc2)c[nH]1)C(=O)N[C@H](C=O)CC(=O)O` [Compound 20d, (3S)3-{N-[4-(3-Phenylpropyl)imidazole-2-carbonyl]-L-alaninyl}amino-4-oxo-butanoic acid] had a pIC50 of 5.21.

Under setting [2], `COc1ccc(CCCc2cnc(C(=O)N3C[C@H](Oc4ccccc4)C[C@H]3C(=O)N[C@H](C=O)CC(=O)O)[nH]2)cc1` [Compound 22e, 3(S)-[(1-{5-[3-(4-Methoxyphenyl)propyl]-1H-imidazole-2-carbonyl}-4(R)-phenoxypyrrolidine-2(S)-carbonyl)amino]-4-oxobutanoic acid] showed a pIC50 below 4.70.

In the case of `C[C@H](NC(=O)c1cnc(CCc2ccccc2)[nH]1)C(=O)N[C@H](C=O)CC(=O)O` [Compound 33a, (3S)3-{N-[2-(2-Phenylethyl)imidazole-4-carbonyl]-L-alaninyl}amino-4-oxobutanoic acid], the negative logarithm of the IC50 (pIC50) is 4.60 under setting [3] and 4.60 under setting [1].

Consider `C[C@H](NC(=O)c1cnc(Cc2ccccc2)[nH]1)C(=O)N[C@H](C=O)CC(=O)O` [Compound 33c, (3S)3-[N-(2-Benzylimidazole-4-carbonyl)-L-alaninyl]amino-4-oxobutanoic acid], for which the negative-log IC50 (pIC50) runs as follows: under setting [3], 4.70; under setting [1], 4.70.

With `C[C@@H](C(=O)N[C@H](C=O)CC(=O)O)n1cccc(NC(=O)CCc2ccccc2)c1=O` [Compound 54a], the pIC50 (Example 2 table) is 5.40 to 5.70 and the pIC50 under setting [1] was 5.57.

Consider `O=C[C@H](CC(=O)O)NC(=O)Cn1c(Cc2ccccc2)ccc(NC(=O)CCc2ccccc2)c1=O` [Compound 54b, 3(S)3-(6-Benzyl-1,2-dihydro-2-oxo-3-(3-phenylpropionyl)amino-1-pyridyl)acetylamino-4-oxobutanoic acid], for which the pIC50 under setting [1] is 5.04 and the pIC50 under setting [2] is 4.70.

Consider `C=CCO[C@@H]1C[C@@H](C(=O)N[C@H](C=O)CC(=O)O)N(C(=O)[C@@H](NC(=O)[C@H](Cc2ccc(O)cc2)NC(C)=O)C(C)C)C1` [Compound 85, N-(N-Acetyl-tyrosinyl-valinyl-(4(R)-allyloxyprolinyl))-3(S)-amino-4-oxobutanoic acid] (Ac-YV[Hyp](Allyl)D-aldehyde), for which the pIC50 under setting [2] is 5.01.

In turn, `O=C(O)C[C@H](NC(=O)[C@@H]1CCc2ncc(NC(=O)CCc3ccccc3)c(=O)n21)C(=O)COC(=O)c1c(Cl)cccc1Cl` [Compound 102a, 2,6-Dichloro-benzoic acid 4-carboxy-2-oxo-(3S)-{[4-oxo-3-(3-phenyl-propionylamino)-4,6,7,8-tetrahydro-pyrrolo[1,2-a]pyrimidine-(6S)-carbonyl]-amino}-butyl ester] showed a pIC50 under setting [2] of 5.40.
